# Assay results from ChEMBL document CHEMBL1140260, “Synthesis and SAR of diazepine and thiazepine TACE and MMP inhibitors” (Bioorg Med Chem Lett, 2005).
# Legend:
# [1] = molecular target: Disintegrin and metalloproteinase domain-containing protein 17 (Homo sapiens, UniProt P78536); assay: Inhibitory concentration against TNF-alpha converting enzyme at 1 uM
# Collagenase 3 = Collagenase 3 (Homo sapiens, UniProt P45452)
# Description: Inhibitory concentration against Matrix metalloprotease-13 at 1 uM
# Mus musculus [2] = assay: Percent inhibition ofTNF-alpha release 1 hr after oral dosing at 25 mpk; format: functional
# Interstitial collagenase = molecular target: T1, Interstitial collagenase (Homo sapiens, UniProt P03956); assay: (§1) Inhibitory concentration against matrix metalloprotease-1 at 1 uM
# T1 sequence (P03956 whole entry): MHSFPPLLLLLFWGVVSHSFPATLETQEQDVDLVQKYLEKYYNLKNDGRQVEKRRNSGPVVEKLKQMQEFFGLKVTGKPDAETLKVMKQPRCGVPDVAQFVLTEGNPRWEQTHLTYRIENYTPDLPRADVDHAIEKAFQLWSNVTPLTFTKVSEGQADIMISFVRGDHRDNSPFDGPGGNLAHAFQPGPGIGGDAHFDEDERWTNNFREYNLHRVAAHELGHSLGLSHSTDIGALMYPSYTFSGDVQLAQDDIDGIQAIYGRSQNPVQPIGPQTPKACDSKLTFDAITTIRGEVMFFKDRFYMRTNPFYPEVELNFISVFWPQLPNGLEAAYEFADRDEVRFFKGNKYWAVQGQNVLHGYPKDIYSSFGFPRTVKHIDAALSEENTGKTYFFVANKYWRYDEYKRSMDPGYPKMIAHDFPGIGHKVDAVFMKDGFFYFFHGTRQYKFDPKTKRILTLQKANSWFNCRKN
# THP-1 [3] = assay: Percent inhibition against LPS stimulated THP-1 cellular assay at 3 uM; format: functional; details: Homo sapiens
# Mus musculus [4] = assay: Percent inhibition ofTNF-alpha release 6 hr after oral dosing at 50 mpk; format: functional
# Mus musculus [5] = assay: Percent inhibition ofTNF-alpha release 1 hr after oral dosing at 50 mpk; format: functional
# [6] = molecular target: T2, Interstitial collagenase (Homo sapiens) (UniProt P03956); assay: Percent inhibition against matrix metalloprotease-1 at 1 uM
# T2 sequence (whole entry): T1 sequence (P03956 whole entry)
# THP-1 [7] = assay: Percent inhibition against LPS stimulated THP-1 cell assay at 3 uM; format: functional; details: Homo sapiens
# Mus musculus [8] = assay: Percent reduction induced by compound in the mouse collagen induced arthritis model after 35 days of peroral dosing at 20 mpk, twice daily; format: functional
# Mus musculus [9] = species on record: Mus musculus; assay: Plasma clearance of compound in mice plasma; format: functional, organism-based
# Mus musculus [10] = assay: Half life of compound in mice after p.o. administration at 50 mg/kg
# Mus musculus [11] = assay: Oral bioavailability of compound in mice; format: functional, organism-based
# Mus musculus [12] = assay: Half life of compound in mice after i.p. administration at 10 mg/kg; format: functional, organism-based; set-up: dose 10 mg/kg
# Mus musculus [13] = assay: Half life of compound in mice after i.v. administration at 5 mg/kg; format: functional, organism-based; set-up: dose 5 mg/kg
# [14] = Volume of distribution of compound in mice; format: ADME, organism-based; details: mouse, in vivo
# [15] = molecular target: T2, Interstitial collagenase (Homo sapiens); assay: as §1
# Sequence of Disintegrin and metalloproteinase domain-containing protein 17 (P78536 whole entry, the tested form may be a part): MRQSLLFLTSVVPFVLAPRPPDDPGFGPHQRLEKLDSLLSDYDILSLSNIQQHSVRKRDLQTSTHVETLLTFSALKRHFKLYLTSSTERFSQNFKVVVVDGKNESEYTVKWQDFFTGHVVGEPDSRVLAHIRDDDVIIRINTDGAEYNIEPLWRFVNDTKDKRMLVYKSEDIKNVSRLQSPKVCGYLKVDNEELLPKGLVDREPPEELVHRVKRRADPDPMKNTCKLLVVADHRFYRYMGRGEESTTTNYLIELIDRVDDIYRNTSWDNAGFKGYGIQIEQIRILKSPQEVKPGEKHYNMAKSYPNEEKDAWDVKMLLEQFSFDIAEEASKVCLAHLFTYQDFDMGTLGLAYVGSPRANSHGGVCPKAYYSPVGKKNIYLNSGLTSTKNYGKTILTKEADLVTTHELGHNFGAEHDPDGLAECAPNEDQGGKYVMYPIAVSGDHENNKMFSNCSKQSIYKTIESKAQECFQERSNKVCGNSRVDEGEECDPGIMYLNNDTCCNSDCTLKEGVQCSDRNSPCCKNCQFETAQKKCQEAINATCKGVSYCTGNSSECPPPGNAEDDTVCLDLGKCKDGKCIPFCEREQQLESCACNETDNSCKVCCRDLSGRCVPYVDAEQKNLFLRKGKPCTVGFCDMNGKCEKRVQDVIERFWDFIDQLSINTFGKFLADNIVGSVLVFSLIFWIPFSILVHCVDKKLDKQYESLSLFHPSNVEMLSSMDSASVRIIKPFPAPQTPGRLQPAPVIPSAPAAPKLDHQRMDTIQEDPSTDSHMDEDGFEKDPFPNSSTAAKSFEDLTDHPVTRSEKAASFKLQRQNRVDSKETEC
SMILES,IC50 [1] [nM],IC50 (Collagenase 3) [nM],IC50 (Interstitial collagenase) [nM],inhibition at 3 µM (THP-1 [3]) [%],inhibition in vivo at 50 mg/kg (Mus musculus [5]) [%],also measured
CC#CCOc1ccc(S(=O)(=O)N2CCCN(C(=O)CNC(=O)OC(C)(C)C)CC2C(=O)NO)cc1 (stereo not drawn),7,446,4580,71,–,inhibition in vivo at 25 mg/kg (Mus musculus [2]): 68%
CC#CCOc1ccc(S(=O)(=O)N2CCN(Cc3ccccc3)CCC2C(=O)NO)cc1 (stereo not drawn),–,–,–,–,17,inhibition in vivo at 50 mg/kg (Mus musculus [4]): 0%
CC#CCOc1ccc(S(=O)(=O)N2CCCN(S(=O)(=O)c3ccccc3)CC2C(=O)NO)cc1 (stereo not drawn),68,88,–,62,–,inhibition [6]: 39%; inhibition in vivo at 25 mg/kg (Mus musculus [2]): 46%
CC#CCOc1ccc(S(=O)(=O)N2CCCSCC2C(=O)NO)cc1 (stereo not drawn),20,36,408,80,24,–
CC#CCOc1ccc(S(=O)(=O)N2CCS(=O)(=O)CCC2C(=O)NO)cc1 (stereo not drawn),19,8,114,92,94,–
CC#CCOc1ccc(S(=O)(=O)N2CCCN(C(=O)OC(C)(C)C)CC2C(=O)NO)cc1 (stereo not drawn),35,363,–,–,–,inhibition [6]: 26%; inhibition at 3 µM (THP-1 [7]): 13%
CC#CCOc1ccc(S(=O)(=O)N2CCNCCC2C(=O)NO)cc1 (stereo not drawn),–,32,–,–,97,Reduction (Mus musculus [8]): 56%; inhibition in vivo at 50 mg/kg (Mus musculus [4]): 62%; CL (mL.min-1.kg-1) (Mus musculus [9]): 64.3; T1/2 (Mus musculus [10]): 51.6 min; bioavailability (Mus musculus [11]): 18%; T1/2 (Mus musculus [12]): 2.64 h; T1/2 (Mus musculus [13]): 1.43 h; Vd [14]: 2.49 L/kg
CC#CCOc1ccc(S(=O)(=O)N2CCN(C(=O)COC)CCC2C(=O)NO)cc1 (stereo not drawn),15,31,277,79,–,–
CC#CCOc1ccc(S(=O)(=O)N2CCCN(C)CC2C(=O)NO)cc1 (stereo not drawn),24,180,–,42,–,inhibition [15]: 36%
CC#CCOc1ccc(S(=O)(=O)N2CCN(C(=O)c3ccccc3)CCC2C(=O)NO)cc1 (stereo not drawn),–,–,–,–,35,inhibition in vivo at 50 mg/kg (Mus musculus [4]): 0%
CC#CCOc1ccc(S(=O)(=O)N2CCCN(C(C)=O)CC2C(=O)NO)cc1 (stereo not drawn),4,305,–,74,–,inhibition in vivo at 25 mg/kg (Mus musculus [2]): 10%
CC#CCOc1ccc(S(=O)(=O)N2CCCS(=O)(=O)CC2C(=O)NO)cc1 (stereo not drawn),28,311,334,–,77,–
CC#CCOc1ccc(S(=O)(=O)N2CCCN(C(=O)CN)CC2C(=O)NO)cc1 (stereo not drawn),12,1060,3030,62,–,–
